3 molecules from ChEMBL document CHEMBL1138083, “Antidyslipidemic activity of furano-flavonoids isolated from Indigofera tinctoria” (2006) can be followed below.

Activity calls are given as the source filed them. No cut-off for these calls is given here.

Common to all, as to type: functional, Mesocricetus auratus
For assay [1], the system named is Syrian golden hamster. Put plainly: Increase in HDL cholesterol level in hamster at 50 mg/kg, po.
Assay [2] concerns Syrian golden hamster. The experiment in a line: Decrease in total cholesterol level in hamster at 50 mg/kg, po. Also on record: scale not given: the % may be the effect or the level left.
Assay [3] concerns Syrian golden hamster. The experiment in a line: Decrease in free fatty acid in hamster at 50 mg/kg, po. Details: scale not given: the % may be the effect or the level left.
Assay [4] deals with Syrian golden hamster. The experiment in a line: Decrease in glycerol level in hamster at 50 mg/kg, po. Also on record: scale not given: the % may be the effect or the level left.
Assay [5] has as its system Syrian golden hamster. Put plainly: Increase in HDL cholesterol to total cholesterol level in hamster at 50 mg/kg, po.
Assay [6] relates to Syrian golden hamster. Put plainly: Decrease in plasma triglyceride level in hamster at 50 mg/kg, po. Details: scale not given: the % may be the effect or the level left.
The subject of assay [7] is Syrian golden hamster. The experiment in a line: Increase in free fatty acid in hamster at 50 mg/kg, po.

In the case of `CC(=O)O[C@@H]1[C@@H]2c3c(ccc4c(=O)cc(-c5ccccc5)oc34)O[C@@H]2OC1(C)C`, the Activity with Syrian golden hamster [1] came to 8%; in the assay with Syrian golden hamster [2], 19%; in the assay on Syrian golden hamster [3] it was 25%; in the assay with Syrian golden hamster [4], 13%; in the assay with Syrian golden hamster [5], 36%; in the assay on Syrian golden hamster [6], 60%.

On to `CC(=O)OC1C(C)(C)OC(=O)C12COc1ccc3c(=O)cc(-c4ccccc4)oc3c12` (stereo not drawn), for which the Activity with Syrian golden hamster [1] is recorded as 28%; in the assay with Syrian golden hamster [4] it was 6%; in the assay with Syrian golden hamster [5] it was 26%; in the assay with Syrian golden hamster [7] it was 7%; with Syrian golden hamster [6], 41%. In the assay with Syrian golden hamster [2] (Mesocricetus auratus), the outcome was inactive.

Take `CC(=O)O[C@H]1[C@@H]2c3c(ccc4c(=O)cc(-c5ccccc5)oc34)O[C@@H]2OC1(C)C`: the Activity in the assay on Syrian golden hamster [1] is 8%; with Syrian golden hamster [2], 19%; in the assay with Syrian golden hamster [3], 25%; with Syrian golden hamster [4], 13%; in the assay on Syrian golden hamster [5], 36%; in the assay on Syrian golden hamster [6] it was 60%.
